Results: publication PMC8592623, “Enhanced oral bioavailability of koumine by complexation with hydroxypropyl-β-cyclodextrin: preparation, optimization, ex vivo and in vivo characterization” (Drug Delivery, 2021)
Values after ≈ are worked out from the molar mass of the structure shown.

Assays:
[1] = parameters: method as in Wang et al. [2019]; conditions: from parameters of published reports; ref Wang et al. [2019]; cited from earlier work
[2] = In vivo pharmacokinetics study after oral administration; conditions: oral gavage 12 mg/kg, male SD rats, n = 6; for AUC0–12 (AUC0-t): 12 mg/kg
Method: The in vivo pharmacokinetic study was approved by the Institutional Animal Ethical Committee, Fujian Medical University, China. Male SD rats (200 ± 20 g) have fasted for 12 h with free access to water before oral administration. The rats were divided randomly into two groups (n = 6) and received KME or KME/HP-β-CD by oral gavage at a drug dose of 12 mg/kg. The KME powder and KME/HP-β-CD were dispersed in deionized water containing 0.1% sodium carboxymethylcellulose (CMC-Na). Blood samples were collected at predetermined intervals (0.05, 0.1, 0.16, 0.5, 1, 3, 6, 9, and 12 h) from the retroorbital venous sinus, and placed in heparinized anticoagulant tubes. After centrifugation at 4,000 rpm for 10 min at 4 °C, the plasma was separated and stored at −80 °C until UPLC-MS/MS analysis.
Plasma samples were prepared by the protein precipitation method (Chen et al. [2013]). Briefly, an aliquot of 50 μL plasma sample and 200 μL of acetonitrile containing 10 ng/mL gelsemine (internal standard, IS) were added to a centrifuge tube. The mixture was vortexed for 5 min and centrifuged at 18,000 rpm for 10 min at 4 °C. Then the supernatant was transferred and injected into the UPLC-MS/MS system for analysis. Chromatographic separation was performed using a UPLC instrument (Agilent 1290, Agilent Technologies, USA), equipped with a mass spectrometer (QTRAP® 5500, AB SCIEX, USA). The mass spectrometer detector was performed with multiple reactions monitoring scan mode at m/z 307.2 → 180.1 for KME and m/z 323.1 → 236.1 for IS. More detailed information about UPLC-MS/MS is provided in the supplementary material. The main pharmacokinetic parameters such as T1/2, Cmax, Tmax, and area under the curve (AUC), were determined using the non-compartmental model with DAS 3.2.1 software. The relative bioavailability F was calculated by the following equation: F(%) =(AUC0–t (inclusion complexes)/AUC0–t(KME)) × 100%

[3] = previously investigated in our laboratory; cited from earlier work
[4] = previously investigated in our laboratory; cited from earlier work; remark: listed apart in the source
[5] = Phase solubility study (Higuchi and Connors); format: physicochemical
Method: The phase solubility studies were carried out according to the method of Higuchi and Connors (Jansook et al. [2018]; Higuchi & Connors [1965]). Briefly, an excess of KME was added to 200 μL aqueous solutions of different HP-β-CD concentrations (1, 2, 4, 6, 8, and 10 mM). All samples were shaken at 25 °C and 100 rpm for 72 h until reaching equilibrium. Subsequently, the samples were withdrawn and filtered through a 0.45 µm membrane to remove undissolved KME. The concentration of KME in the HP-β-CD solutions was determined by an HPLC method, and the analyses were performed in triplicate (n = 3). The apparent stability constants (Ks) were calculated by the following equation (Nair et al. [2014]; Pinto et al. [2020]): Ks = slope/So (1-slope), where So represents the intrinsic solubility of the drug, and the slope is the slope of the linear KME-CD phase solubility diagram.

[6] = test system: rat intestines (everted gut sac: duodenum, jejunum, ileum, colon); assay: Ex vivo everted gut sac experiments; format: in vitro ADME
Method: The protocol of the animal study was approved by the Institutional Animal Care and Use Committee of Fujian Medical University (permit number: SYXK (Min) 2018-0001), China. Male SD rats weighing 220–250 g were fasted overnight before the experiment and with free access to water. The everted gut sac method was carried out as in previously published reports with minor modifications (Tambe et al. [2019]). Rats were anesthetized and sacrificed, and the intestinal segments of interest were identified and dissected (duodenum, starting 1 cm from the stomach; jejunum, 10–18 cm from the stomach; ileum, starting 8 cm above the cecum; colon, 5 cm below the cecum) (Rong et al. [2013]).
Each obtained intestinal segment was immediately washed with ice-cold Krebs-Ringer (K-R) solution, and then turned out with a glass rod, and one end was ligated with a thread. After inserting the glass tube, the other open end of the everted sacs was also tightened. Then blank K-R solution (2.5 mL) was added to the everted gut sacs. The everted segments were preincubated in 50 mL of K-R solution at 37 °C for 5 min. […] After the experiment, the length of each intestinal segment was accurately measured, and the concentration of KME was measured by HPLC. The apparent permeability coefficient (Papp) values of KME were calculated by the following equation (Tambe et al. [2019]): […]

[7] = introduction, no reference given; cited from earlier work
[8] = Caco-2 permeability study; format: in vitro ADME; conditions: human, 50 μg/mL KME equivalent
Method: Caco-2 cells were seeded at a density of 5 × 10^5 cells/well on top of 12-well Transwell® polycarbonate filters, and cultured in a 5% CO2 incubator at 37 °C for 21 days. The medium was changed every 2 days in the first week, and then every day for the next two weeks. At the end of 21 days, a Millicell-ERS epithelial voltmeter (Merck, USA) was used to analyze the transepithelial electrical resistance (TEER) value of Caco-2 cells. Only monolayers with TEER values higher than 600 Ω·cm^2 can be used in subsequent transport experiments (Chen et al. [2018]).
To investigate the permeability of KME and KME/HP-β-CD inclusion complexes in Caco-2 cells, the apical to basal (A-B) and basal to apical (B-A) transport of KME was measured. After preincubation for 30 min with blank HBSS, 0.5 mL of HBSS medium containing KME or KME/HP-β-CD (equivalent KME concentration of 50 μg/mL) was added to the apical side in the A-B direction experiments, and 1.5 mL of fresh HBSS was added to the basolateral side of the inserts as the acceptor phase. In contrast, for the B-A direction experiments, 1.5 mL of HBSS medium containing KME or KME/HP-β-CD (equivalent KME concentration of 50 μg/mL) was added to the basolateral side, and 0.5 mL of fresh HBSS was added to the apical side of the inserts as the acceptor phase. The plates were incubated in a shaker at 37 °C. 100 μL of the sample were taken from the acceptor side at predetermined time intervals (30, 60, 90, and 120 min) and replaced by the same volume of fresh HBSS to maintain a constant volume. Finally, the obtained samples were analyzed by HPLC. The Papp values (cm/s) were determined using the following equation (McCartney et al. [2019]; Patel & Sawant [2019]): Papp=(dQ/dt)/(A×C0),where dQ/dt is the steady−state flux, A is the surface area of the monolayer (1.12 cm^2), and C0 is the donor concentration (50 μg/mL). TEER (Ω·cm^2)=(TEER (Ω) –TEER blank (Ω)) × A(cm^2)
Here, TEER (Ω), Caco-2 monolayers; TEER blank (Ω), the insert without cells; A (cm^2), 1.12 cm^2.

[9] = Saturation solubility in distilled water; format: physicochemical; conditions: 37 °C, saturated solution
Method: Excess KME and KME/HP-β-CD were added to distilled water to obtain a supersaturated solution (Arya & Raghav [2021]). The samples were shaken at 37 °C for 24 h and 100 rpm. After centrifugation, the supernatants were filtered through a 0.45 μm membrane and the solubility was determined (n = 3) with the validated HPLC method.

[10] = Cell viability study (CCK-8 assay); format: cell-based; conditions: human, Caco-2, 5–100 μg/mL, read-out: viability of Caco-2 cells
Method: The cytotoxicity of KME and KME/HP-β-CD was evaluated in Caco-2 cells using the cell counting kit-8 (CCK-8) assay. Caco-2 cells were cultured in DMEM containing 20% FBS and incubated at 37 °C with 5% CO2. Caco-2 cells (1 × 10^4 cell/well) were seeded in 96-well plates and incubated for 24 h. Then, 100 μL of fresh medium containing KME or KME/HP-β-CD (5–100 µg/mL) was added. After 24 h, the culture medium was changed with CCK-8 solution and the samples were incubated for another 2 h. The optical density (OD) was read at 490 nm (BioTek Instruments, Winooski).

[11] = In vitro drug release, dialysis bag diffusion method; format: physicochemical; conditions: pH 6.8 phosphate buffer, 37 °C
Method: A dialysis bag diffusion method was used to evaluate in vitro drug release profiles of both KME and KME/HP-β-CD (Zhao et al. [2021]). 2 mg of KME was dispersed in water, and then transferred to a dialysis bag and placed in a beaker containing 40 mL of pH 6.8 phosphate buffer. The study was carried out at 37 ± 0.5 °C and a magnetic stirring speed of 100 rpm. Aliquots of approximately 4 mL were taken out at predetermined time intervals (10 min, 15 min, 30 min, 1 h, 2 h, 3 h, and 6 h) and replaced by the same volume of fresh buffer to maintain a constant volume of dissolution media during sampling. The samples were filtered and analyzed by HPLC.

SMILES: C=C[C@@]12CN(C)[C@H]3C[C@]14C(=Nc1ccccc14)[C@H]1C[C@@H]2[C@@H]3CO1 [KME, Koumine]
- absolute bioavailability (Fabs) [1]: 1%
- AUC0–12 (AUC0-t) ([2]; listed as KME suspension): 72.50 ± 15.25 ng·h/mL
- AUC0–12 (AUC0-t) ([2]; listed as Raw KME): 26.48 ± 17.80 ng·h/mL
- AUC(0-inf) ([2]; rat, plasma): 30.2 ± 16.6 ng·h/mL
- Cmax ([2]; rat, plasma): 22.8 ± 15.6 ng/mL
- Tmax ([2]; rat, plasma): 19.8 ± 12 min
- half-life ([2]; rat, plasma): 51.6 ± 7.2 min
- absolute bioavailability (Fabs) in rats [3]: 14.30%
- absolute bioavailability (Fabs) in beagle dogs [4]: 5.67%
- solubility at 72 h ([5]; 10 mM HP-β-CD aqueous solution, 25 °C, 72 h, read-out: solubility of KME at 10 mM HP-β-CD): 1810 µg/mL (≈ 5910 µM)
- increase of KME solubility at 10 mM HP-β-CD ([5]; 10 mM HP-β-CD versus water): 2.59 fold
- solubility thermodynamic at 72 h ([5]; water, 25 °C, 72 h, no HP-β-CD, read-out: equilibrium solubility of KME in water): 700 ± 20 µg/mL (≈ 2280 µM)
- order of absorption flux in the intestinal segments ([6]; 100 μg/mL, up to 120 min): ileum > duodenum > jejunum > colon
- KME absorption in colon segment with verapamil versus without ([6]; colon, verapamil 100 μg/mL (inhibitor of P-gp)): no significant difference
- solubility in water [7]: < 1 mg/mL
- efflux ratio at 120 min, 50 µg/mL ([8]; read-out: efflux ratio (B-A permeability/A-B permeability)): 1.74
- Papp A→B at 120 min, 50 µg/mL ([8]; apical to basal, 120 min): 7.78 ± 2.01 ×10⁻⁶ cm/s
- Papp B→A at 120 min, 50 µg/mL ([8]; basal to apical, 120 min): 13.5 ± 1.72 ×10⁻⁶ cm/s
- solubility at 24 h [9]: 700 µg/mL (≈ 2280 µM)
- viability at 24 h [10]: > 90%
- release rate in the first 1 h ([11]; 1 h): 40%
- release rate within 6 h ([11]; 6 h): 70%
